The target in the test is T1, crosslinked smooth muscle actomyosin (chicken gizzard smooth muscle myosin subfragment-1 crosslinked to cardiac or skeletal actin) (Gallus gallus, UniProt P10587).
T1 construct: chicken gizzard smooth muscle myosin subfragment-1; from tissue; host or cells: chicken gizzard
Briefly: Lead optimization pyruvate kinase/horseradish peroxidase/pyruvate oxidase-coupled ATPase assay (compound dose response). Type of test: biochemical. To be noted: read-out: IC50 Arithmetic Mean. As for the experimental part: Screening assays were performed using a pyruvate kinase and lactate dehydrogenase-coupled ATPase assay containing the following reagents: Potassium PIPES (50 mM), MgCl2 (3 mM), KCl (100 mM), ATP (0.15 mM), DTT (1 mM), BSA (0.1 mg/ml), NADH (0.5 mM), PEP (1.5 mM), pyruvate kinase (4 U/ml), lactate dehydrogenase (8 U/ml), and antifoam (50 ppm) (concentrations expressed are final assay concentrations). The pH was adjusted to 6.80 at 22° C. by addition of potassium hydroxide. Lead optimization assays were performed with a more sensitive pyruvate kinase/horseradish peroxidase/pyruvate oxidase-coupled ATPase assay containing the following reagents: Potassium PIPES (12 mM), MgCl2 (2 mM), KCl (100 mM), ATP (0.15 mM), BSA (0.05 mg/ml), potassium phosphate (2 mM), amplex red (0.1 mM), PEP (0.1 mM), pyruvate kinase (4 U/ml), horseradish peroxidase (0.5 U/ml), pyruvate oxidase (0.5 U/ml), and antifoam (50 ppm) (concentrations expressed are final assay concentrations). The pH was adjusted to 7.00 at 22° C. by addition of potassium hydroxide.
The protein components specific to this assay are chicken gizzard smooth muscle myosin subfragment-1 that has been chemically crosslinked to either cardiac or skeletal actin using an excess of 1-Ethyl-3-[3-dimethylaminopropyl]carbodiimide hydrochloride and N-hydroxysuccinimide. The exact concentration of the crosslinked smooth muscle myosin in the assay is determined empirically, by titration to achieve a desired rate of ATP hydrolysis. The concentration varies between protein preparations due to variations in the fraction of active molecules in each preparation.
Compound dose response assays are performed by first preparing a dilution series of test compound, each with an assay mixture containing potassium PIPES, MgCl2, KCl, ATP, BSA, potassium phosphate, amplex red, PEP, crosslinked smooth muscle actomyosin (subfragment-1), antifoam, and water. The assay is started by adding an equal volume of solution containing potassium Pipes, MgCl2, KCl, BSA, potassium phosphate, pyruvate kinase, horseradish peroxidase, pyruvate oxidase, antifoam, and water. ATP hydrolysis is monitored by measuring the fluorescence of amplex red (excitation at 480 nm, emission at 615 nm). The resulting dose response curve is fit by the 4 parameter equation y=Bottom+((Top-Bottom)/(1+((IC50/X)^Hill))). The IC50 is defined as the concentration at which ATPase activity is midway between the top and bottom of the dose response curve.

Consider `CCc1ccc(NC(=O)OCC2(CC(=O)NCc3ccccc3Cl)CCN(C(=O)CN)CC2)cc1` [2-(1-(2-aminoacetyl)-4-{[N-(4-ethylphenyl)carbamoyloxy]methyl}(4-piperidyl))-N-[(2-chlorophenyl)methyl]acetamide], for which the IC50 – broadly, the concentration at which inhibition is half-maximal – was determined as 3740 nM. Regarding `CCc1ccc(NC(=O)OCC(C)(NC(=O)CN)C(=O)NCc2ccccc2Cl)cc1` (stereo not shown) [2-(2-aminoacetylamino)-N-[(2-chlorophenyl)methyl]-3-[N-(4-ethylphenyl)carbamoyloxy]-2-methylpropanamide], the half-inhibitory concentration (IC50) came to 3990 nM. Under `CCc1ccc(NC(=O)OCCC(NC(=O)CN)C(=O)NCc2ccccc2Cl)cc1` (stereo not shown) [2-(2-aminoacetylamino)-N-[(2-chlorophenyl)methyl]-4-[N-(4-ethylphenyl)carbamoyloxy]butanamide] stands 4370 nM; under `CCc1ccc(NC(=O)OCC(C)(NC(=O)[C@@H](N)CO)C(=O)NCc2ccccc2Cl)cc1` (stereo partly drawn) [2-((2S)-2-amino-3-hydroxypropanoylamino)-N-[(2-chlorophenyl)methyl]-3-[N-(4-ethylphenyl)carbamoyloxy]-2-methylpropanamide], 11200 nM; under `CCc1ccc(NC(=O)OC[C@H](C)N(CC(=O)O)C(=O)NCc2ccccc2Cl)cc1` [2-(N-{(1S)-2-[N-(4-ethylphenyl)carbamoyloxy]-isopropyl}{[(2-chlorophenyl)methyl]amino}carbonylamino)acetic acid], 1670 nM.

Consider `CCc1ccc(NC(=O)OCC(C)(NC(C)=O)C(=O)NCc2ccccc2Cl)cc1` (stereo not shown) [2-(acetylamino)-N-[(2-chlorophenyl)methyl]-3-[N-(4-ethylphenyl)carbamoyloxy]-2-methylpropanamide], for which the 50% inhibitory concentration (IC50) came out at 3140 nM. In the case of `CCc1ccc(NC(=O)OCC(NC(C)=O)C(=O)NCc2ccccc2Cl)cc1` (stereo not shown) [2-(acetylamino)-N-[(2-chlorophenyl)methyl]-3-[N-(4-ethylphenyl)carbamoyloxy]propanamide] it was 13700 nM. Under `CCc1ccc(NC(=O)OCCN(CCCNC(=O)CNC(=O)OC(C)(C)C)C(=O)NCc2ccccc2Cl)cc1` [2-[(tert-butoxy)carbonylamino]-N-[3-({[(2-chlorophenyl)methyl]amino}-N-{2-[N-(4-ethylphenyl)carbamoyloxy]ethyl}carbonylamino)propyl]acetamide] stands 4090 nM; under `CCc1ccc(NC(=O)OCCN(CCN(C)C(=O)CN)C(=O)NCc2ccccc2Cl)cc1` [2-amino-N-[2-({[(2-chlorophenyl)methyl]amino}-N-{2-[N-(4-ethylphenyl)carbamoyloxy]ethyl}carbonylamino)ethyl]-N-methylacetamide], 5860 nM; under `CCc1ccc(NC(=O)OCCN(CCNC(=O)CN)C(=O)NCc2ccccc2Cl)cc1` [2-amino-N-[2-({[(2-chlorophenyl)methyl]amino}-N-{2-[N-(4-ethylphenyl)carbamoyloxy]ethyl}carbonylamino)ethyl]acetamide], 896 nM. On to `CCc1ccc(NC(=O)OCCN(CCCNC(=O)CN)C(=O)NCc2ccccc2Cl)cc1` [2-amino-N-[3-({[(2-chlorophenyl)methyl]amino}-N-{2-[N-(4-ethylphenyl)carbamoyloxy]ethyl}carbonylamino)propyl]acetamide], for which the IC50 worked out at 188 nM. On to `CCc1ccc(NC(=O)OCCN(CCCCNC(=O)CN)C(=O)NCc2ccccc2Cl)cc1` [2-amino-N-[4-({[(2-chlorophenyl)methyl]amino}-N-{2-[N-(4-ethylphenyl)carbamoyloxy]ethyl}carbonylamino)butyl]acetamide], for which the half-maximal inhibitory concentration (IC50) was 223 nM. `CCc1ccc(NC(=O)OCCC(N)C(=O)NCc2ccccc2Cl)cc1` (stereo not shown) [2-amino-N-[(2-chlorophenyl)methyl]-4-[N-(4-ethylphenyl)carbamoyloxy]butanamide]: the IC50 was 6810 nM. In the case of `CN(CCN(CCOC(=O)Nc1ccc(C(F)(F)F)cc1)C(=O)NCc1ccccc1Cl)C(=O)CN` [2-amino-N-{2-[{[(2-chlorophenyl)methyl]amino}-N-(2-{N-[4-(trifluoromethyl)phenyl]carbamoyloxy}ethyl)carbonylamino]ethyl}-N-methylacetamide], the IC50 was determined as 15000 nM. Consider `CCc1ccc(NC(=O)OCC2(C(=O)NCc3ccccc3Cl)CCN(C(=O)OCCN)CC2)cc1` [2-aminoethyl 4-{N-[(2-chlorophenyl)methyl]carbamoyl}-4-{[N-(4-ethylphenyl)carbamoyloxy]methyl}piperidinecarboxylate], for which the IC50 worked out at 336 nM. Take `CCc1ccc(NC(=O)OCC(C)(NC(=O)CNC(=O)OC(C)(C)C)C(=O)NCc2ccccc2Cl)cc1` (stereo not shown) [2-{2-[(tert-butoxy)carbonylamino]acetylamino}-N-[(2-chlorophenyl)methyl]-3-[N-(4-ethylphenyl)carbamoyloxy]-2-methylpropanamide]: the half-maximal inhibitory concentration (IC50) was 19400 nM. In the case of `CCc1ccc(NC(=O)CCC2(C(=O)NCc3ccccc3C)CCN(C(=O)CN)CC2)cc1` [3-(1-(2-aminoacetyl)-4-{N-[(2-methylphenyl)methyl]carbamoyl}(4-piperidyl))-N-(4-ethylphenyl)propanamide] it was 15300 nM.

Consider `CCc1ccc(NC(=O)OCCN(C)C(=O)CCc2ccccc2Cl)cc1` [3-(2-chlorophenyl)-N-{2-[N-(4-ethylphenyl)carbamoyloxy]ethyl}-N-methylpropanamide], for which the IC50 amounted to 875 nM.

Regarding `CCc1ccc(NC(=O)OCC2(C(=O)NCc3ccccc3Cl)CCN(C(=O)C(N)CC(=O)O)CC2)cc1` (stereo not shown) [3-amino-4-(4-{N-[(2-chlorophenyl)methyl]carbamoyl}-4-{[N-(4-ethylphenyl)carbamoyloxy]methyl}piperidyl)-4-oxobutanoic acid], the 50% inhibitory concentration (IC50) worked out at 1530 nM. Regarding `CCc1ccc(NC(=O)OCC(C)(CCNC(=O)CN)C(=O)NCc2ccccc2Cl)cc1` (stereo not shown) [4-(2-aminoacetylamino)-N-[(2-chlorophenyl)methyl]-2-{[N-(4-ethylphenyl)carbamoyloxy]methyl}-2-methylbutanamide], the IC50 is 283 nM. Under `CCc1ccc(NC(=O)OCC(C)(CCNC(C)=O)C(=O)NCc2ccccc2Cl)cc1` (stereo not shown) [4-(acetylamino)-N-[(2-chlorophenyl)methyl]-2-{[N-(4-ethylphenyl)carbamoyloxy]methyl}-2-methylbutanamide] stands 742 nM; under `CCc1ccc(NC(=O)OCC(C)(CCN)C(=O)NCc2ccccc2Cl)cc1` (stereo not shown) [4-amino-N-[(2-chlorophenyl)methyl]-2-{[N-(4-ethylphenyl)carbamoyloxy]methyl}-2-methylbutanamide], 1740 nM; under `CCc1ccc(NC(=O)OCC(C)(CCNC(=O)CNC(=O)OC(C)(C)C)C(=O)NCc2ccccc2Cl)cc1` (stereo not shown) [4-{2-[(tert-butoxy)carbonylamino]acetylamino}-N-[(2-chlorophenyl)methyl]-2-{[N-(4-ethylphenyl)carbamoyloxy]methyl}-2-methylbutanamide], 1300 nM. Regarding `NC(=O)c1ccc(NC(=O)OCC2(C(=O)NCc3ccccc3Cl)CCOCC2)cc1` [4-{[(4-{N-[(2-chlorophenyl)methyl]carbamoyl}-2H-3,4,5,6-tetrahydropyran-4-yl)methoxy]carbonylamino}benzamide], the 50% inhibitory concentration (IC50) worked out at 16100 nM. In the case of `CCc1ccc(NC(=O)OCC2(C(=O)NCc3ccccc3Cl)CCN(C(=O)C(N)CN)CC2)cc1` (stereo not shown) [(1-(2,3-diaminopropanoyl)-4-{[N-(4-ethylphenyl)carbamoyloxy]methyl}(4-piperidyl))-N-[(2-chlorophenyl)methyl]carboxamide], the half-inhibitory concentration (IC50) stood at 1020 nM. In the case of `CCc1ccc(NC(=O)OCC2(C(=O)NCc3ccccc3Cl)CCN(C(=O)C(O)CO)CC2)cc1` (stereo not shown) [(1-(2,3-dihydroxypropanoyl)-4-{[N-(4-ethylphenyl)carbamoyloxy]methyl}(4-piperidyl))-N-[(2-chlorophenyl)methyl]carboxamide] it was 123 nM; in that of `CCc1ccc(NC(=O)OCC2(C(=O)NCc3ccccc3Cl)CCN(C(=O)C(N)CCN)CC2)cc1` (stereo not shown) [(1-(2,4-diaminobutanoyl)-4-{[N-(4-ethylphenyl)carbamoyloxy]methyl}(4-piperidyl))-N-[(2-chlorophenyl)methyl]carboxamide], 585 nM; in that of `CCc1ccc(NC(=O)OCC2(C(=O)NCc3ccccc3Cl)CCN(C(=O)C(N)CCCN)CC2)cc1` (stereo not shown) [(1-(2,5-diaminopentanoyl)-4-{[N-(4-ethylphenyl)carbamoyloxy]methyl}(4-piperidyl))-N-[(2-chlorophenyl)methyl]carboxamide], 1490 nM.

(Values after US8071625B2, “Certain chemical entities, compositions, and methods” (Cytokinetics, Inc., priority 2006, dated 2011).)
